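Where inhibition never reached the appropriate level, the endpoint shown equals the highest concentration tested. Otherwise, values were interpolated linearly from a five-concentration, 48-hour dose response in 96-well plates. At the TGI there is no net growth.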

What all share (test): growth of human tumour cells (NCI), 48 h
Assay [1] concerns HOP-62 NSCLC.
In assay [2] the test system is HT29 colon.
In assay [3] the test system is RXF 393 renal.
Assay [4] concerns SR leukemia.
The test system of assay [5] is OVCAR-8 ovarian.
The subject of assay [6] is HCT-116 colon.
Assay [7] has as its system MCF7 breast.
Assay [8] deals with TK-10 renal.
Assay [9] relates to SK-MEL-5 melanoma.

On to `O=C(O)c1ccccc1Sc1ccc(C=C2NC(=S)N(c3ccccc3)C2=O)s1`, for which the TGI in [1], in assay [2], in [3], in [4], in assay [5] and in [6] was over 100 µM each time. For the same molecule, the TGI in assay [7], in assay [8] and in [9] was over 100 µM in each case.
`Cc1csc(NCc2ccc(Cl)cc2)n1`: the TGI in assay [1] was over 100 µM; in [2], over 100 µM; in [3], 79 µM; in [4], over 100 µM; in [5], over 100 µM; in [6], over 100 µM. Besides, the TGI was over 100 µM in assay [7], over 100 µM in assay [8] and 59.4 µM in [9].
Take `O=C(NCC(O)COc1ccccc1)c1ccccc1O` (stereo unspecified): the TGI in assay [1], in [3], in assay [4], in [5], in assay [6] and in [7] was over 100 µM each time. For the same molecule, the TGI in assay [8] and in [9] was over 100 µM throughout.
As for `CCn1c(=O)c2nc(SC)sc2n(-c2ccccc2)c1=S`, the TGI in assay [1], in assay [2], in assay [3], in [4], in assay [5] and in assay [6] was over 100 µM in each case. Moreover, the TGI in [7], in [8] and in assay [9] was over 100 µM each time.
As to `COc1ccc2cc(CNCCCCCCNC(=O)Nc3cccc4ccccc34)ccc2c1`, the TGI in assay [1], in assay [2], in [3], in assay [4], in assay [5] and in assay [6] was over 100 µM throughout. The TGI in assay [7], in [8] and in assay [9] was over 100 µM throughout.
Regarding `COc1cccc(C2c3cc4c(cc3OC(NNS(=O)(=O)c3ccc(C)cc3)C2C)OCO4)c1O` (stereo unspecified), the TGI in [1] is 53 µM; in [2], 47.1 µM; in [3], 70.9 µM; in assay [4], 26.2 µM; in assay [5], over 100 µM; in assay [6] it was 30.1 µM. Also, the figures for the TGI in [7], in assay [8] and in assay [9] were 51.2 µM, 95.2 µM and 42 µM, respectively.
For `C#C[C@]1(O)CC[C@H]2[C@@H]3CCC4=C/C(=N/OC(=O)c5cccc6cc7ccccc7nc56)CC[C@@H]4[C@H]3CC[C@@]21CC`, the TGI in assay [1], in assay [2], in assay [3], in [4], in [5] and in assay [6] was over 100 µM each time. Besides, the TGI in [7] and in assay [9] was over 100 µM throughout.
Take `CCOC(=O)/C(C(=O)c1ccc[nH]1)=C1/CCCN1C`: the TGI in [1], in assay [2], in [3], in assay [4], in assay [5] and in assay [6] was over 100 µM throughout. Besides, the TGI in assay [7], in assay [8] and in assay [9] was over 100 µM each time.
Turning to `O=[N+]([O-])C(/C=C(\Cl)[N+](=O)[O-])=C(N1CCOCC1)N1CCOCC1`, the TGI in assay [1] was 37.7 µM; in assay [2], 83.1 µM; in assay [3] it was over 100 µM; in assay [4], over 100 µM; in [5], over 100 µM; in assay [6], 62 µM. Also, the TGI in [7] was 35.3 µM; in assay [8], over 100 µM; in assay [9], over 100 µM.
As for `CCN(CC)C(=O)N[C@@H](CC(C)C)C(=O)NC`, the TGI in [1], in assay [2], in assay [3], in assay [4], in assay [5] and in [6] was over 100 µM each time. Moreover, the TGI in assay [7] and in assay [9] was over 100 µM in each case.
Turning to `C(/C=C(\Nc1ccccc1)c1ccc2ccccc2c1)=Nc1ccccc1`, the TGI in assay [1] is 7.05 µM; in assay [3] it was 7.41 µM; in assay [4], 2.49 µM; in assay [5], 14.1 µM; in assay [6], 10 µM; in [7] it was 15.7 µM. Besides, the TGI in assay [8] was found to be 4.47 µM; in assay [9], 13.8 µM.
For the molecule `CC(C)C1OC(=O)C(Cc2ccccc2)N(C)C(=O)C(C(C)C)OC(=O)C(Cc2ccccc2)N(C)C(=O)C(C(C)C)OC(=O)C(Cc2ccccc2)N(C)C1=O` (stereo unspecified), the TGI in [1] was 2.19 µM; in assay [2], 2.07 µM; in assay [3], 2.33 µM; in assay [4], 4.06 µM; in [5] it was 1.97 µM; in [6] it was 2.36 µM. Further, the results for the TGI in assay [7], in assay [8] and in assay [9] were 1.79 µM, 2.12 µM and 1.08 µM, respectively.
`Cc1ccc2c(c1)CC1(Cc3cc(C)ccc3C1=O)C2=O`: the TGI in assay [1], in assay [2], in assay [3], in [4], in [5] and in assay [6] was over 100 µM in each case. In addition, the TGI in assay [7], in assay [8] and in assay [9] was over 100 µM throughout.
Regarding `NC1=Nc2ncccc2C(=O)NN1`, the TGI in [1], in assay [2], in [3], in [4], in assay [5] and in assay [6] was over 10 µM each time. Besides, the TGI in [7], in [8] and in [9] was over 10 µM in each case.
Turning to `CC[C@@]1(O)C(=O)OCc2c1cc1n(c2=O)Cc2c-1nc1ccc(N)cc1c2CC[Si](C)(C)C`, the TGI in [1] is 0.368 µM; in assay [2] it was 11.6 µM; in assay [3], 0.257 µM; in assay [4] it was under 0.01 µM; in assay [5] it was 0.818 µM; in [6] it was 2.01 µM. The TGI was 0.39 µM in [7], 3.88 µM in assay [8] and under 0.0222 µM in [9].

For the origin of these results see PubChem BioAssay (NCI).
